Measured values reported in patent publication US20100152129A1 (priority 2008, published 2010).
Like-named read-outs stand apart in the source and are kept apart here.

How the values were obtained:
Panc-1 cells = assay: Protein expression using high content cell imaging system, and efficacy score; assay type: cell-based; details: for Efficacy score: cumulative over proteins of Table 7; on BCL2 protein expression: test concentration or dose not given here; on CCND1 protein expression: test concentration or dose not given here; on CDC25B protein expression: test concentration or dose not given here; on CDKN2A protein expression: test concentration or dose not given here; on COX15 protein expression: test concentration or dose not given here; on GADD45-α protein expression: test concentration or dose not given here; on GAPDH protein expression: test concentration or dose not given here; on ID1 protein expression: test concentration or dose not given here; on MMP-1 protein expression: test concentration or dose not given here; on P27 protein expression: test concentration or dose not given here; on PTN protein expression: test concentration or dose not given here
Panc1 cells [1] = details: human
Panc1 cells [2] = assay: Drug induced cytotoxicity at various time points, comparison with known CDK inhibitors
[3] = 6 hours post treatment, control 1
[4] = 6 hours post treatment, control 3
[5] = 6 hours post treatment, control 6
[6] = 6 hours post treatment, control 7
[7] = 6 hours post treatment, control 8
[8] = 6 hours post treatment, control 74
[9] = 6 hours post treatment, control 80
[10] = 6 hours post treatment, control 147
[11] = 6 hours post treatment, control 501
[12] = 6 hours post treatment, control 627
[13] = 6 hours post treatment, control 635
[14] = 6 hours post treatment, control 819
[15] = 6 hours post treatment, control 829
[16] = 6 hours post treatment, control 830
[17] = 6 hours post treatment, control 1240
[18] = 16 hours post treatment, control 13
[19] = 16 hours post treatment, control 54
[20] = 16 hours post treatment, control 64
[21] = 16 hours post treatment, control 67
[22] = 16 hours post treatment, control 76
[23] = 16 hours post treatment, control 77
[24] = 16 hours post treatment, control 90
[25] = 16 hours post treatment, control 100
[26] = 16 hours post treatment, control 202
[27] = 16 hours post treatment, control 579
[28] = 16 hours post treatment, control 644
[29] = 16 hours post treatment, control 711
[30] = 16 hours post treatment, control 718
[31] = 16 hours post treatment, control 929
[32] = 16 hours post treatment, control 1109
[33] = 16 hours post treatment, control 2583
[34] = 36 hours post treatment, control 19
[35] = 36 hours post treatment, control 86
[36] = 36 hours post treatment, control 96
[37] = 36 hours post treatment, control 98
[38] = 36 hours post treatment, control 100
[39] = 36 hours post treatment, control 265
[40] = 36 hours post treatment, control 715
[41] = 36 hours post treatment, control 722
[42] = 36 hours post treatment, control 1093
[43] = 36 hours post treatment, control 1316
[44] = 36 hours post treatment, control 1410
[45] = 36 hours post treatment, control 1441
[46] = 36 hours post treatment, control 2840

`CN1CC[C@H](c2c(O)cc(O)c3c(=O)cc(-c4ccccc4Cl)oc23)[C@H](O)C1` [Flavopiridol] showed a PTN protein expression (Panc-1 cells; [3]) of 1 fluorescence units, a GADD45-α protein expression (Panc-1 cells; [4]) of 1 fluorescence units and an ID1 protein expression (Panc-1 cells; [4]) of 2 fluorescence units. For the same compound, the P27 protein expression (Panc-1 cells; [5]) was 9 fluorescence units, the CDC25B protein expression (Panc-1 cells; [6]) was 1 fluorescence units and the CDKN2A protein expression (Panc-1 cells; [7]) was 67 fluorescence units. The CCND1 protein expression (Panc-1 cells; [8]) was 78 fluorescence units, the GAPDH protein expression (Panc-1 cells; [9]) was 80 fluorescence units and the CASP3 protein expression (Panc-1 cells; [10]) was 111 fluorescence units. It also gave an MMP-1 protein expression (Panc-1 cells; [11]) of 501 fluorescence units, a COX15 protein expression (Panc-1 cells; [12]) of 689 fluorescence units and a COX2 protein expression (Panc-1 cells; [13]) of 351 fluorescence units. For the same compound, the BAX protein expression (Panc-1 cells; [14]) was 481 fluorescence units, the VEGF protein expression (Panc-1 cells; [15]) was 501 fluorescence units and the BCL2 protein expression (Panc-1 cells; [16]) was 410 fluorescence units. It also gave a pRB protein expression (Panc-1 cells; [17]) of 1523 fluorescence units, an Efficacy score (Panc-1 cells; 6 hours) of 1.6 and a GADD45-α protein expression (Panc-1 cells; [18]) of 15 fluorescence units. The CDC25B protein expression (Panc-1 cells; [19]) was 10 fluorescence units, the CDKN2A protein expression (Panc-1 cells; [20]) was 14 fluorescence units and the P27 protein expression (Panc-1 cells; [21]) was 22 fluorescence units. For the same compound, the PTN protein expression (Panc-1 cells; [22]) was 17 fluorescence units, the ID1 protein expression (Panc-1 cells; [23]) was 19 fluorescence units and the CCND1 protein expression (Panc-1 cells; [24]) was 52 fluorescence units. It also gave a GAPDH protein expression (Panc-1 cells; [25]) of 100 fluorescence units, a CASP3 protein expression (Panc-1 cells; [26]) of 536 fluorescence units and a VEGF protein expression (Panc-1 cells; [27]) of 129 fluorescence units. It also gave a BCL2 protein expression (Panc-1 cells; [28]) of 401 fluorescence units, a BAX protein expression (Panc-1 cells; [29]) of 252 fluorescence units and a COX15 protein expression (Panc-1 cells; [30]) of 459 fluorescence units. The MMP-1 protein expression (Panc-1 cells; [31]) was 129 fluorescence units, the COX2 protein expression (Panc-1 cells; [32]) was 466 fluorescence units and the pRB protein expression (Panc-1 cells; [33]) was 1300 fluorescence units. For the same compound, the Efficacy score (Panc-1 cells; 16 hours) was 9.4, the GADD45-α protein expression (Panc-1 cells; [34]) was 5 fluorescence units and the COX2 protein expression (Panc-1 cells; [35]) was 2 fluorescence units. For the same compound, the P27 protein expression (Panc-1 cells; [36]) was 2 fluorescence units, the CCND1 protein expression (Panc-1 cells; [37]) was 27 fluorescence units and the CDC25B protein expression (Panc-1 cells; [37]) was 21 fluorescence units. The GAPDH protein expression (Panc-1 cells; [37]) was 2 fluorescence units, the ID1 protein expression (Panc-1 cells; [37]) was 3 fluorescence units and the PTN protein expression (Panc-1 cells; [38]) was 100 fluorescence units. The CASP3 protein expression (Panc-1 cells; [39]) was 599 fluorescence units, the BAX protein expression (Panc-1 cells; [40]) was 1049 fluorescence units and the COX15 protein expression (Panc-1 cells; [41]) was 1256 fluorescence units. It also gave a VEGF protein expression (Panc-1 cells; [42]) of 316 fluorescence units, an MMP-1 protein expression (Panc-1 cells; [43]) of 316 fluorescence units and a BCL2 protein expression (Panc-1 cells; [44]) of 367 fluorescence units. It also gave a CDKN2A protein expression (Panc-1 cells; [45]) of 798 fluorescence units, a pRB protein expression (Panc-1 cells; [46]) of 1557 fluorescence units and an Efficacy score (Panc-1 cells; 36 hours) of 9.3. For the same compound, the “% Cytotoxicity in Panc1 cells” value (Panc1 cells [1]; 16 h) was 21.25% and the “% Cytotoxicity in Panc1 cells” value (Panc1 cells [1]; 36 h) was 29.47%.
For `CC[C@H](CO)Nc1nc(NCc2ccccc2)c2ncn(C(C)C)c2n1` [Roscovitine], the PTN protein expression (Panc-1 cells; [3]) was 2 fluorescence units, the GADD45-α protein expression (Panc-1 cells; [4]) was 2 fluorescence units and the ID1 protein expression (Panc-1 cells; [4]) was 16 fluorescence units. For the same compound, the P27 protein expression (Panc-1 cells; [5]) was 6 fluorescence units, the CDC25B protein expression (Panc-1 cells; [6]) was 4 fluorescence units and the CDKN2A protein expression (Panc-1 cells; [7]) was 10 fluorescence units. The CCND1 protein expression (Panc-1 cells; [8]) was 82 fluorescence units, the GAPDH protein expression (Panc-1 cells; [9]) was 81 fluorescence units and the CASP3 protein expression (Panc-1 cells; [10]) was 217 fluorescence units. The MMP-1 protein expression (Panc-1 cells; [11]) was 417 fluorescence units, the COX15 protein expression (Panc-1 cells; [12]) was 936 fluorescence units and the COX2 protein expression (Panc-1 cells; [13]) was 542 fluorescence units. For the same compound, the BAX protein expression (Panc-1 cells; [14]) was 729 fluorescence units, the VEGF protein expression (Panc-1 cells; [15]) was 417 fluorescence units and the BCL2 protein expression (Panc-1 cells; [16]) was 569 fluorescence units. It also gave a pRB protein expression (Panc-1 cells; [17]) of 1578 fluorescence units, an Efficacy score (Panc-1 cells; 6 hours) of 1.9 and a GADD45-α protein expression (Panc-1 cells; [18]) of 49 fluorescence units. The CDC25B protein expression (Panc-1 cells; [19]) was 38 fluorescence units, the CDKN2A protein expression (Panc-1 cells; [20]) was 47 fluorescence units and the P27 protein expression (Panc-1 cells; [21]) was 42 fluorescence units. For the same compound, the PTN protein expression (Panc-1 cells; [22]) was 37 fluorescence units, the ID1 protein expression (Panc-1 cells; [23]) was 55 fluorescence units and the CCND1 protein expression (Panc-1 cells; [24]) was 84 fluorescence units. For the same compound, the GAPDH protein expression (Panc-1 cells; [25]) was 99 fluorescence units, the CASP3 protein expression (Panc-1 cells; [26]) was 1272 fluorescence units and the VEGF protein expression (Panc-1 cells; [27]) was 475 fluorescence units. For the same compound, the BCL2 protein expression (Panc-1 cells; [28]) was 529 fluorescence units, the BAX protein expression (Panc-1 cells; [29]) was 747 fluorescence units and the COX15 protein expression (Panc-1 cells; [30]) was 954 fluorescence units. It also gave an MMP-1 protein expression (Panc-1 cells; [31]) of 475 fluorescence units, a COX2 protein expression (Panc-1 cells; [32]) of 990 fluorescence units and a pRB protein expression (Panc-1 cells; [33]) of 1632 fluorescence units. The Efficacy score (Panc-1 cells; 16 hours) was 11.5, the GADD45-α protein expression (Panc-1 cells; [34]) was 44 fluorescence units and the COX2 protein expression (Panc-1 cells; [35]) was 67 fluorescence units. It also gave a P27 protein expression (Panc-1 cells; [36]) of 63 fluorescence units, a CCND1 protein expression (Panc-1 cells; [37]) of 98 fluorescence units and a CDC25B protein expression (Panc-1 cells; [37]) of 68 fluorescence units. For the same compound, the GAPDH protein expression (Panc-1 cells; [37]) was 75 fluorescence units, the ID1 protein expression (Panc-1 cells; [37]) was 56 fluorescence units and the PTN protein expression (Panc-1 cells; [38]) was 98 fluorescence units. For the same compound, the CASP3 protein expression (Panc-1 cells; [39]) was 1335 fluorescence units, the BAX protein expression (Panc-1 cells; [40]) was 1785 fluorescence units and the COX15 protein expression (Panc-1 cells; [41]) was 1992 fluorescence units. The VEGF protein expression (Panc-1 cells; [42]) was 1024 fluorescence units, the MMP-1 protein expression (Panc-1 cells; [43]) was 1024 fluorescence units and the BCL2 protein expression (Panc-1 cells; [44]) was 1091 fluorescence units. The CDKN2A protein expression (Panc-1 cells; [45]) was 1322 fluorescence units, the pRB protein expression (Panc-1 cells; [46]) was 1889 fluorescence units and the Efficacy score (Panc-1 cells; 36 hours) was 8.1. The “% Cytotoxicity in Panc1 cells” value (Panc1 cells [2]; 6 hrs after drug treatment) was 12.35%, the “% Cytotoxicity in Panc1 cells” value (Panc1 cells [2]; 16 hrs after drug treatment) was 15.24% and the “% Cytotoxicity in Panc1 cells” value (Panc1 cells [2]; 36 hrs after drug treatment) was 17.35%.
